Assay results published in US20080227846A1, “METHODS OF TREATING JUVENILE TYPE 1 DIABETES MELLITUS” (MUSC Foundation for Research Development, priority 2007, published 2008).
Several values for one entry are separate records, joined by “and”; a condition that tells them apart may be missing. Equal entries are not always repeated.

How the values were obtained:
[1] = tested on: NOD mice; assay: Simvastatin plus insulin, blood glucose in NOD mice; type: in vivo, mouse
Protocol: In another experiment, simvastatin was administered to NOD mice, and the animals were supplemented with insulin in an attempt to keep the animals from developing diabetic ketoacidosis. The study was designed to examine whether simvastatin at 2 mg/kg/day and 5 mg/kg/day protected islet cells from damage during early phases of diabetes. […]. The animals were divided into four groups randomly. Group 1 was the control and received oral lavage of physiological saline daily, plus insulin as set forth above. Groups 2 and 3 received simvastatin at a dose of 2 mg/kg/day or 5 mg/kg/day, respectively, along with insulin as set forth above. Group 4 received no treatment with either simvastatin or insulin. Blood glucose (BG) was measured in each animal approximately once a week, unless the glucose level of an animal began to fluctuate, at which time glucose level were measured every other day. This study lasted approximately four months. The last column of Table 1 is a list of measurements of glucose levels in all animals treated with simvastatin.

[2] = tested on: new-onset T1DM patients; conditions: cited from earlier work
[3] = tested on: juvenile patients newly diagnosed with T1DM; assay: Statin treatment of juvenile patients newly diagnosed with T1DM, C-peptide; type: in vivo, human; conditions: patient
Protocol: Two juvenile patients newly diagnosed with T1DM were treated with a statin in order to evaluate whether the diabetic condition in the juvenile patient can be stabilized or reversed by statin treatment. A human patient who was positive for insulin antibodies was identified as having new onset T1DM. […] The patient was treated with 10 mg/day for the first two weeks after diagnosis, and 20 mg/day thereafter.
A human patient who was positive for insulin antibodies was identified as having new onset T1DM. The patient began treatment with 20 mg/day atorvastatin calcium (Lipitor®) at the time (the day of) diagnosis of T1DM. […] Normally, within 12 months after diagnosis a child would have been expected to drop from 100% of the insulin the patient started with to 14.0%±7% (s.d.) of the insulin the child started with.

[4] = tested on: iNOS and TNF-α protein; assay: Western blot of pancreas tissue; type: in vivo, mouse; conditions: vs saline-treated diabetic mice
[5] = tested on: macrophages (ED1) and granulocytes (GR) infiltrated into the pancreatic islets; assay: Immunohistopathology staining of pancreas for infiltration of macrophages and granulocytes; conditions: for entry of inflammatory cells into pancreatic tissue: animals of Example 1
[6] = tested on: NOD mice; assay: Prevention of diabetes in NOD mice, daily oral atorvastatin calcium or AICAR; type: in vivo, mouse; conditions: for NOD mice without diabetes compared to saline: FIG. 6, atorvastatin p<0.004, AICAR 10 mg/kg body weight per day orally p<0.001
Description: The non-obese diabetic (NOD) mouse model is the best-studied animal model of autoimmune diabetes. […] Spontaneous diabetes occurs in female NOD mice and is preceded by insulitis, a lymphocytic infiltration of the pancreatic islets, which is the major histologic event occurring by 5-8 weeks in the NOD mouse (Chatenoud et al., Proc. Natl. Acad. Sci. 91:123-127, 1994).
In these experiments, 4-week old female NOD mice were obtained from Jackson Laboratories (JAX strain no 001976; NOD/LtJ strain) and maintained in a sterile environment. Drug treatment began at 4-weeks of age, prior to inflammatory disease onset. Under normal conditions, diabetes begins appearing in NOD mice by 12-weeks in untreated animals, with 90-100% of the mice developing the disease by 30-weeks.
The animals were divided into three groups of 23 animals each. Group 1 was the control and received vehicle only by oral lavage of physiological saline daily. Groups 2 and 3 received atorvastatin calcium (Lipitor®) at a dose of 5 or 10 mg/kg body weight daily, respectively. Blood glucose (BG) was measured in each animal three-times per week. […] Also, two non-diabetic animals from each group were sacrificed on days 50, 70, and 80 for histological and cytokine analyses (not included in FIG. 1).
In addition to statins, AICAR was also administered to NOD mice at 10 mg/kg body weight per day orally.

[7] = tested on: NOD mice; assay: Atorvastatin calcium and AICAR, individually and in combination, blood glucose in NOD mice; type: in vivo, mouse; conditions: FIG. 8
[8] = tested on: iNOS, TNF-α, and IFN-γ mRNA; assay: Quantitative real-time PCR of pancreas, pro-inflammatory cytokines and iNOS; type: in vivo, mouse; conditions: FIG. 9, vs saline-treated mice
[9] = Palomer et al., Diabetologia 48:1671-1673 (2005); cited from earlier work

With `CCC(C)(C)C(=O)O[C@H]1C[C@@H](C)C=C2C=C[C@H](C)[C@H](CC[C@@H]3C[C@@H](O)CC(=O)O3)[C@H]21` [simvastatin] the “average blood glucose level” value ([1]; Group 2, simvastatin 2 mg/kg/day plus insulin, 36 determinations, p=0.05 vs saline plus insulin) was 143.6 ± 26.5 mg/dL, the “average blood glucose level” value ([1]; Group 2, simvastatin 2 mg/kg/day plus insulin, 36 determinations, p=0.05 vs saline plus insulin, listed as Simv.) was 143.6 mg/dL and the “average blood glucose level” value ([1]; Group 3, simvastatin 5 mg/kg/day plus insulin, 28 determinations, p<0.02 vs saline plus insulin) was 134.5 ± 15.7 mg/dL. The “average blood glucose level” value ([1]; Group 3, simvastatin 5 mg/kg/day plus insulin, 28 determinations, p<0.02 vs saline plus insulin, listed as Simv.) was 134.5 mg/dL and the “average blood glucose level” value ([1]; Simvastatin Combined, 64 determinations) was 139.7 mg/dL and 139.6563 mg/dL.
In the case of “hOKT3y1(ala-ala): modified, nonmitogenic, humanized form of the anti-CD3 monoclonal antibody”, the “patients who maintained the same or improved endogenous insulin secretion” value ([2]; one year after initial 14-day course, 25% in the control group, Herold et al. 2002) is given as 75%.
For “TRX4: anti-CD3 monoclonal antibody with orphan drug status”, the “adverse effect associated with therapy” value ([2]; six-day intravenous infusion) is listed as “moderate “flu-like” syndrome”.
For `CC(C)c1c(C(=O)Nc2ccccc2)c(-c2ccccc2)c(-c2ccc(F)cc2)n1CC[C@@H](O)C[C@@H](O)CC(=O)O` [atorvastatin calcium], the C-peptide ([3]; 10 mg/day two weeks then 20 mg/day, six months, FIG. 14) was “marked increase in C-peptide”, the “rise of C-peptide levels” value ([3]; 20 mg/day, after 50 days of treatment) was 39.25% and the C-peptide level ([3]; 20 mg/day, after 50 days of treatment, initial 35.8 units) was 49.85 units. The “increase of insulin over the original amount of C-peptide” value ([3]; 20 mg/day, over a period of 24 months, FIG. 15) was 240%, the “net increase of the amount of insulin vs expected” value ([3]; expected […]±7% of starting insulin within 12 months) was 600% and the “expression of iNOS and TNF-α protein in pancreas” value [4] was “increased expression of iNOS and TNF-α protein in saline-treated diabetic mice compared with atorvastatin calcium-treated mice”. For the same molecule, the “entry of inflammatory cells into pancreatic tissue” value [5] was “inflammatory cells are not entering pancreatic tissue”, the “immunostaining for ED1 and GR1 marker proteins in pancreas” value ([5]; vs intense staining in saline-treated mice) was “No immunostaining was observed” and the “mean BGs” value ([6]; 10 mg/kg daily oral, s.e.=15, n=277, p<0.001 vs saline 219) was 182.5. For the same molecule, the “NOD mice without diabetes compared to saline” value [6] was “effective”, the “protection from development of auto-immune diabetes” value ([6]; NOD mice, 5 or 10 mg/kg daily) was “partially protects” and the “number of surviving disease-free animals vs control group” value ([6]; after 104 days of treatment, 5 or 10 mg/kg daily, FIG. 1) was “greater”. For the same molecule, the “number of animals that developed diabetes” value ([6]; during treatment, FIG. 1) was “reduction in the number of animals that developed diabetes”, the “mean BG vs control Group 1” value ([7]; Group 2, 5 mg/kg body weight daily oral, day 59-109 after weaning) was “lower” and the “mean BG vs control Group 1” value ([7]; Group 3, 10 mg/kg body weight daily oral, day 59-109 after weaning) was “lower”. For the same molecule, the “mRNA expression of iNOS, TNF-α, and IFN-γ in pancreas” value [8] was “elevated in saline-treated mice” and the “effect on preventing diabetes” value [9] was “no effect on preventing diabetes”.
In the case of `NC(=O)c1ncn([C@@H]2O[C@H](CO)[C@@H](O)[C@H]2O)c1N` [AICAR, 5-aminoimidazole-4-carboxamide ribonucleoside], the “entry of inflammatory cells into pancreatic tissue” value [5] is reported as “inflammatory cells are not entering pancreatic tissue”, the “NOD mice without diabetes compared to saline” value [6] is reported as “significantly different” and the “mean BG vs control Group 1” value ([7]; Group 4, 0.5 mg/gm body weight daily oral, p=0.025 by log-rank test) is reported as “lower”. The “mRNA expression of iNOS, TNF-α, and IFN-γ in pancreas” value [8] was “elevated in saline-treated mice”.
